Data on four compounds can be found in patent US20160324863A1, “TARGETED CANCER TREATMENT BY HSP90 INHIBITORS GANETESPIB AND NVP-AUY922” (SYNTA PHARMACEUTICALS CORP., priority 2014, published 2016).

Data set [1] deals with RT4 bladder cancer cell line. The experiment in a line: CellTiter-Glo viability assay, RT4. The note with it: 72 hours (FIG. 8), read-out: IC50 values. In kind it is cell-based. How it is done:
(§1) Cellular viability was assessed using the CellTiter-Glo Luminescent Cell Viability Assay (Promega) according to manufacturer protocols. Bladder cancer cell lines were seeded into 96-well plates based on optimal growth rates determined empirically for each line. Twenty-four hours after plating, cells were dosed with graded concentrations of ganetespib for 72 hours. CellTiter-Glo was added (50% v/v) to the cells, and the plates incubated for 10 minutes prior to luminescent detection in a SpectraMax Plus 384 microplate reader (Molecular Devices). Data were normalized to percent of control and IC50 values used to determine the sensitivity of each line. For the comparative analyses with ganetespib and BGJ398, RT112 cells were treated with graded concentrations of each compound for 72 hours and cell viability measured as above. For the evaluation of apoptotic induction, caspase activity was assessed using the Caspase-Glo 3/7 assay (Promega) according to manufacturer protocols. Twenty-four hours after plating, RT112 cells were treated with graded concentrations of ganetespib for 24 hours. Caspase-Glo was added to cells (50% v/v) and the plates incubated for 1 hour prior to luminescent detection.
Background: Cellular ATP, detected with luciferase, serves as a proxy for viable cell number.

Data set [2] relates to SW780 bladder cancer cell line. The experiment in a line: CellTiter-Glo viability assay, SW780. The format is cell-based. The note with it: 72 hours (FIG. 12). How it is done: as §1
The test system of another data set is RT112 xenografts. The experiment in a line: RT112 xenograft tumor model. In kind it is in vivo. The note with it: BGJ398 10 mg/kg p.o. daily, 3 weeks. How it is done: CD-1 nude mice (Charles River Laboratories, Wilmington, Mass.) at 7-12 weeks of age were maintained in a pathogen-free environment and all in vivo procedures were approved by the Synta Pharmaceuticals Corp. Institutional Animal Care and Use Committee. RT112 cells (5×10^6) were subcutaneously implanted into female mice and animals bearing established tumors (˜150 mm^3) were randomized into treatment groups of 8. Mice were i.v. dosed with ganetespib (150 mg/kg) once weekly or p.o. dosed with BGJ398 (10 mg/kg) daily, either alone or in combination, for 3 weeks. Tumor growth inhibition was monitored by tumor volume measurements twice weekly. As a measurement of in vivo efficacy, the % T/C value was determined from the change in average tumor volumes of each treated group relative to the vehicle treated animals. Statistical significance was determined using two-way ANOVA followed by Bonferroni post tests.

Data set [3] concerns RT112 bladder cancer cell line. The data set can be described thus: CellTiter-Glo viability assay, RT112. The note with it: Homo sapiens, RT-112, 72-hour combination viability assay, single inhibitor, read-out: approximate IC50 concentrations. In kind it is cell-based. How it is done: as §1
In data set [4] the test system is FGFR3-TAAC3 in RT112 cells. The experiment in a line: Western blotting of FGFR3-TAAC3 and signaling proteins in RT112 cells. Conditions: 100 nM, 24 hours. The format is cell-based. How it is done: Following in vitro assays, tumor cells were disrupted in lysis buffer on ice for 10 minutes. Lysates were clarified by centrifugation and equal amounts of proteins resolved by SDS-PAGE before transfer to nitrocellulose membranes (Bio-Rad). Membranes were blocked with StartingBlock T20 blocking buffer (Thermo Scientific) and immunoblotted with the indicated antibodies. Antibody-antigen complexes were visualized using an Odyssey system (LI-COR).
For orientation: Immunoblotting shows a protein as a band on a membrane.

Some results are limits rather than exact numbers.

As to `CCNC(=O)c1noc(-c2cc(C(C)C)c(O)cc2O)c1-c1ccc(CN2CCOCC2)cc1` [AUY922], the IC50 in data set [1] was > 1000 nM.
For `CO[C@H]1/C=C\C=C(/C)C(=O)NC2=CC(=O)C(NCCN(C)C)=C(C[C@@H](C)C[C@H](OC)[C@H](O)[C@@H](C)/C=C(\C)[C@@H]1OC(N)=O)C2=O` [17-DMAG, 17-dimethylaminoethylamino-17-demethoxygeldanamycin], the “cytotoxicity / sensitivity of cells (in words)” value in data set [2] was “acutely sensitive”.
Consider `CCN1CCN(c2ccc(Nc3cc(N(C)C(=O)Nc4c(Cl)c(OC)cc(OC)c4Cl)ncn3)cc2)CC1` [BGJ398, reference compound], for which the T/C value in the data set with RT112 xenografts is recorded as −20%. The IC50 in data set [3] was ~5 nM. Further, the “total FGFR3-TAAC3 expression” value in data set [4] is on record as “did not affect”.
For the compound `C=CCNC1=C2C[C@@H](C)C[C@H](OC)[C@H](O)[C@@H](C)/C=C(\C)[C@H](OC(N)=O)[C@@H](OC)/C=C\C=C(/C)C(=O)NC(=CC1=O)C2=O` [17-AAG, 17-allylamino-17-demethoxygeldanamycin], the “cytotoxicity / sensitivity of cells (in words)” value in data set [2] is on record as “acutely sensitive”.
